Counter-ions that a name gives are not always drawn.
Experiments:
[1] = Fluorescence intensity after reaction with N-acetylcysteine; format: physicochemical; details: 5 μmol/L; after reaction with one molecule of cysteine (NAC); sodium phosphate buffer pH 7.4, 0.5% DMSO
Protocol: (§1) Compound 8 at a concentration of 5 μmol/L was added with N-acetylcysteine (NAC), Ac-AECACRA-OH peptide, or Ac-AECAACRA-OH peptide (C-terminus is carboxyl group, N-terminus is acetyl group (Ac), and amino acids are represented by the single letter codes), and fluorescence intensity was measured. For the reaction mixture, a 100 mmol/L sodium phosphate buffer (pH=7.4, containing 0.5% dimethyl sulfoxide as a cosolvent) was used.

[2] = Fluorescence intensity after reaction with peptides containing two neighboring cysteine residues; format: physicochemical; details: 5 μmol/L; after reaction with peptides containing two neighboring cysteine residues in the same molecule; sodium phosphate buffer pH 7.4, 0.5% DMSO
Protocol: as §1

[3] = in 0.1 mol/L sulfuric acid solution; value taken as standard; cited from earlier work

Fluorescence [1]	Fluorescence [2]	Structure (SMILES)	Fluorescence quantum yield (reference standard) [3]
substantially non-fluorescent	intensely fluorescent adducts	O=C(Cc1cc(=O)oc2cc(O)ccc12)NC1CC(N2C(=O)C=CC2=O)CC(N2C(=O)C=CC2=O)C1 (stereo not drawn) [Compound 8]	
		C=C[C@H]1C[N@@]2CC[C@H]1C[C@H]2[C@H](O)c1ccnc2ccc(OC)cc12 [quinine sulfate]	0.577

Source: US20090118471A1, “NOVEL COUMARIN DERIVATIVES” (The University of Tokyo, priority 2006, published 2009)
